Drawing on patent US11795177B2, “Substituted quinoline analogs as aldehyde dehydrogenase 1A1 (ALDH1A1) inhibitors” (THE UNITED STATES OF AMERICA, AS REPRESENTED BY THE …, priority 2017, dated 2023), this text covers IC50 for 23 compounds.

For assay [1], the target named is T1, ALDH1A1 enzyme (Homo sapiens, UniProt P00352).
T1 sequence (P00352 1-501): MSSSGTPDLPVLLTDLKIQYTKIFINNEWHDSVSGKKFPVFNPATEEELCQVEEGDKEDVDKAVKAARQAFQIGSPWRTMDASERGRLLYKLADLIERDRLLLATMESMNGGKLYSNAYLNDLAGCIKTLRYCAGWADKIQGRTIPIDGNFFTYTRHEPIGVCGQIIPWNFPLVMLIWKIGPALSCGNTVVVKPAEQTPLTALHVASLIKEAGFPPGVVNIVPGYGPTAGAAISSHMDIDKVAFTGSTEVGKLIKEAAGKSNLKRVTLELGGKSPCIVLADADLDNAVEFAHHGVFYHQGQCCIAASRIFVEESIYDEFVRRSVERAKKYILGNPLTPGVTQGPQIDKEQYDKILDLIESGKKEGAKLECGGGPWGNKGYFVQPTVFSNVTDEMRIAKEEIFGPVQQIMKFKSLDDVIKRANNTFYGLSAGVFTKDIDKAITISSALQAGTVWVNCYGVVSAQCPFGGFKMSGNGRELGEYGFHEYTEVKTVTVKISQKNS
Put plainly: ALDH1A1 enzymatic assay (in vitro). Format: biochemical. As to conditions: ALDH1A1 enzyme 20 nM, NAD+ 1 mM, propionaldehyde 80 μM; read-out: ALDH1A1 IC50. The essentials:
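ALDH1A1 (20 nM final) in 100 mM HEPES pH 7.5, 0.01% Tween 20 was preincubated 15 min at RT with compound (968 pM–57.2 μM final), then started with 1 mM NAD+ and 80 μM propionaldehyde. NADH fluorescence (ex 340/em 450 nm) followed kinetically for 10 min; change normalized to no-inhibitor and no-enzyme controls for percent inhibition and curve fitting.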

Assay [2] concerns MIA PaCa-2 cells. Put plainly: MIA PaCa2 cell-based assay (1,536-well high-content imaging ALDEFLUOR assay). Also on record: species or system human. As to conditions: Homo sapiens, 0.5 h, ALDEFLUOR BAAA substrate 500 nM, 30 minutes. The procedure, abridged: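 MIA PaCa-2 cells (1,000/well), plated overnight, given BAAA substrate (500 nM) plus Hoechst 33342 (0.5 nM), then compound (16-point, 1.4 nM–47.8 μM final; 0.5% DMSO). After 30 min at 37° C, ALDH activity imaged by high-content microscopy as BAA-retaining (FITC) cells versus Hoechst-stained nuclei.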

A word on the IC50: it is the concentration that gives 50% inhibition. For the compound `CS(=O)(=O)C1CCN(C(=O)c2cnc3ccc(F)cc3c2-c2ccc(C3(C#N)CC3)cc2)CC1` [Example 266, 1-(4-(6-fluoro-3-(4-(methylsulfonyl)piperidine-1-carbonyl)quinolin-4-yl)phenyl)cyclopropanecarbonitrile], the IC50 in assay [1] and in assay [2] was under 500 nM each time.

As to `N#CC1(c2ccc(Cl)cc2)CCN(c2c(C(=O)N3CCN(C(=O)C4CC4)CC3)cnc3ccc(F)cc23)CC1` [Example 267, 4-(4-chlorophenyl)-1-(3-(4-(cyclopropanecarbonyl)piperazine-1-carbonyl)-6-fluoroquinolin-4-yl)piperidine-4-carbonitrile], the figures for the IC50 in assay [1] and in assay [2] were under 500 nM and 1000 to 10000 nM, respectively.

On to `CC(=O)C1(c2ccccc2)CCN(c2c(C(=O)N3CCN(S(=O)(=O)N(C)C)CC3)cnc3ccc(F)cc23)CC1` [Example 268, 4-(4-(4-acetyl-4-phenylpiperidin-1-yl)-6-fluoroquinoline-3-carbonyl)-N,N-dimethylpiperazine-1-sulfonamide], for which the IC50 in assay [1] and in assay [2] was under 500 nM in each case.

Turning to `CS(=O)(=O)C1CCN(C(=O)c2cnc3ccc(F)cc3c2N2CCC(C#N)(c3ccccc3)CC2)CC1` [Example 269, 1-(6-fluoro-3-(4-(methylsulfonyl)piperidine-1-carbonyl)quinolin-4-yl)-4-phenylpiperidine-4-carbonitrile], the IC50 in assay [1] and in assay [2] was under 500 nM each time.

In the case of `CC(=O)C1(c2ccccc2)CCN(c2c(C(=O)N3CCN(C(=O)N(C)C)CC3)cnc3ccc(F)cc23)CC1` [Example 271, 4-(4-(4-acetyl-4-phenylpiperidin-1-yl)-6-fluoroquinoline-3-carbonyl)-N,N-dimethylpiperazine-1-carboxamide], the IC50 in assay [1] and in assay [2] was under 500 nM throughout.

For the compound `CC(=O)C1(c2ccccc2)CCN(c2c(C(=O)N3CCC(S(C)(=O)=O)CC3)cnc3ccc(F)cc23)CC1` [Example 273, 1-(1-(6-fluoro-3-(4-(methylsulfonyl)piperidine-1-carbonyl)quinolin-4-yl)-4-phenylpiperidin-4-yl)ethanone], the 50% inhibitory concentration (IC50) in assay [1] and in assay [2] was under 500 nM in each case.

Consider `N#CC1(c2ccccc2F)CCN(c2c(C(=O)N3CCN(C(=O)C4CC4)CC3)cnc3ccc(F)cc23)CC1` [Example 276, 1-(3-(4-(cyclopropanecareonyl)piperazine-1-carbonyl)-6-fluoroquinolin-4-yl)-4-(2-fluorophenyl)piperidine-4-carbonitrile], for which the IC50 in assay [1] and in assay [2] was under 500 nM each time.

As for `Cc1ccc(C2(C#N)CCN(c3c(C(=O)N4CCN(S(C)(=O)=O)CC4)cnc4ccc(F)cc34)CC2)c(F)c1` [Example 277, 1-(6-fluoro-3-(4-(methylsulfonyl)piperazine-1-carbonyl)quinolin-4-yl)-4-(2-fluoro-4-methylphenyl)piperidine-4-carbonitrile], the IC50 in assay [1] and in assay [2] was under 500 nM throughout.

With `N#CC1(c2ccc(F)cc2)CCN(c2c(C(=O)N3CCN(C(=O)C4CC4)CC3)cnc3ccc(F)cc23)CC1` [Example 278, 1-(3-(4-(cyclopropanecarbonyl)piperazine-1-carbonyl)-6-fluoroquinolin-4-yl)-4-(4-fluorophenyl)piperidine-4-carbonitrile], the IC50 in assay [1] and in assay [2] was under 500 nM throughout.

In the case of `CS(=O)(=O)N1CCN(C(=O)c2cnc3ccc(F)cc3c2-c2ccc(C3(CO)CC3)cc2)CC1` [Example 280, (6-fluoro-4-(4-(1-(hydroxymethyl)cyclopropyl)phenyl)quinolin-3-yl)(4-(methylsulfonyl)piperazin-1-yl)methanone], the IC50 in assay [1] and in assay [2] was under 500 nM in each case.

In the case of `CN(C)C(=O)N1CCN(C(=O)c2cnc3ccsc3c2-c2ccc(C3(C#N)CC3)cc2)CC1` [Example 281, 4-(7-(4-(1-cyanocyclopropyl)phenyl)thieno[3,2-b]pyridine-6-carbonyl)-N,N-dimethylpiperazine-1-carboxamide], the IC50 in assay [1] and in assay [2] was under 500 nM each time.

On to `CS(=O)(=O)C1CCN(C(=O)c2cnc3ccsc3c2-c2ccc(C3(C#N)CC3)cc2)CC1` [Example 283], for which the IC50 in assay [1] and in assay [2] was under 500 nM throughout.

In the case of `CN(C)S(=O)(=O)N1CCN(C(=O)c2cnc3ccsc3c2-c2ccc(C3(C#N)CC3)cc2)CC1` [Example 284, 4-(7-(4-(1-cyanocyclopropyl)phenyl)thieno[3,2-b]pyridine-6-carbonyl)-N,N-dimethylpiperazine-1-sulfonamide], the IC50 in assay [1] and in assay [2] was under 500 nM in each case.

Take `CN(C)S(=O)(=O)N1CCN(C(=O)c2cnc3ccsc3c2N2CCC(C#N)(c3ccccc3)CC2)CC1` [Example 287, 4-(7-(4-cyano-4-phenylpiperidin-1-yl)thieno[3,2-b]pyridine-6-carbonyl)-N,N-dimethylpiperazine-1-sulfonamide]: the IC50 in assay [1] and in assay [2] was under 500 nM in each case.

On to `CN(C)C(=O)N1CCN(C(=O)c2cnc3ccsc3c2N2CCC(C#N)(c3ccccc3)CC2)CC1` [Example 289, 4-(7-(4-cyano-4-phenylpiperidin-1-yl)thieno[3,2-b]pyridine-6-carbonyl)-N,N-dimethylpiperazine-1-carboxamide], for which the IC50 in assay [1] and in assay [2] was under 500 nM in each case.

In the case of `Cc1ccc(C2(C#N)CCN(c3c(C(=O)N4CCN(C(=O)C5CC5)CC4)cnc4ccc(F)cc34)CC2)c(F)c1` [Example 290, 1-(3-(4-(cyclopropanecarbonyl)piperazine-1-carbonyl)-6-fluoroquinolin-4-yl)-4-(2-fluoro-4-methylphenyl)piperidine-4-carbonitrile], the IC50 in assay [1] and in assay [2] was under 500 nM in each case.

Take `O=C(c1cnc2ccc(F)cc2c1N1CCC(O)(c2ccccc2)CC1)N1CCN(C(=O)C2CC2)CC1` [Example 291, (4-(cyclopropanecarbonyl)piperazin-1-yl)(6-fluoro-4-(4-hydroxy-4-phenylpiperidin-1-yl)quinolin-3-yl)methanone]: the figures for the IC50 in assay [1] and in assay [2] were under 500 nM and over 10000 nM, respectively.

Consider `CS(=O)(=O)C1CCN(C(=O)c2cnc3ccsc3c2N2CCC(C#N)(c3ccccc3)CC2)CC1` [Example 293, 1-(6-(4-(methylsulfonyl)piperidine-1-carbonyl)thieno[3,2-b]pyridin-7-yl)-4-phenylpiperidine-4-carbonitrile], for which the IC50 in assay [1] and in assay [2] was under 500 nM each time.

On to `CS(=O)(=O)C1CCN(C(=O)c2cnc3ccc(Cl)cc3c2-c2ccc(C3(C#N)CC3)cc2)CC1` [Example 295, 1-(4-(6-chloro-3-(4-(methylsulfonyl)piperidine-1-carbonyl)quinolin-4-yl)phenyl)cyclopropanecarbonitrile], for which the IC50 in assay [1] and in assay [2] was under 500 nM each time.

For the compound `CN(C)C(=O)N1CCN(C(=O)c2cnc3ccc(Cl)cc3c2-c2ccc(C3(C#N)CC3)cc2)CC1` [Example 296, 4-(6-chloro-4-(4-(1-cyanocyclopropyl)phenyl)quinoline-3-carbonyl)-N,N-dimethylpiperazine-1-carboxamide], the IC50 in assay [1] and in assay [2] was under 500 nM in each case.

`CN(C)S(=O)(=O)N1CCN(C(=O)c2cnc3ccc(Cl)cc3c2-c2ccc(C3(C#N)CC3)cc2)CC1` [Example 298, 4-(6-chloro-4-(4-(1-cyanocyclopropyl)phenyl)quinoline-3-carbonyl)-N,N-dimethylpiperazine-1-sulfonamide]: the IC50 in assay [1] and in assay [2] was under 500 nM in each case.

For `CC(C)(C#N)c1ccc(-c2c(C(=O)N3CCN(S(C)(=O)=O)CC3)ccc3ccccc23)cc1` [Example 299, 2-methyl-2-(4-(2-(4-(methylsulfonyl)piperazine-1-carbonyl)naphthalen-1-yl)phenyl)propanenitrile], the IC50 in assay [1] and in assay [2] was under 500 nM each time.

For the compound `CS(=O)(=O)N1CCN(C(=O)c2ccc3ccccc3c2-c2ccc(C3(C#N)CC3)cc2)CC1` [Example 300, 1-(4-(2-(4-(methylsulfonyl)piperazine-1-carbonyl)naphthalen-1-yl)phenyl)cyclopropanecarbonitrile], the IC50 in assay [1] and in assay [2] was under 500 nM each time.
